Source: patent US12053454B2, “Compositions for cryopreservation and methods of use thereof” (EVERGREEN BIOSCIENCES, priority 2017, dated 2024)

Legend:
[1] = system: primary mouse cortical neuron cells; experiment: Viability after freeze/thaw in solutions comprising different necrostatins; format: cell-based; conditions: necrostatin 20 nM with other components of the soln unchanged; vs vehicle cryopreserved with 10% DMSO
Excerpt: Several analogs of necrostatins were studied and found to work similarly in their cryoprotective effect after freeze/thaw.

[2] = system: stem cells (motor neuron precursors); experiment: Motor neuron identity (CHAT1) after freezing of stem cells; format: cell-based; conditions: frozen in solutions comprising 0.01 μM cyspA, or 20 nM Nec1, or 5 nM iMAC2; vs frozen in the absence of these compounds
Excerpt: Cellular freeze/thaw cycle causes stem cells to lose their identity, as measured by the level of CHAT1 in motor neurons. […] As shown here (FIG. 3), each of cyspA, Nec1, and IMAC2 provided cryoprotection to stem cells upon freezing, maintaining cellular characteristics. Cryoprotectants in solution used to freeze the cells, maintained motor neuron identity, as measure by the level of CHAT1.

SMILES | percent viability [1] | CHAT1 levels [2]
COc1ccc2c(c1)C1=NN(C(C)=O)C(c3ccc(F)cc3)C1CC2 (centres unmarked) [Nec3] | significantly enhanced percent viability | –
Cl.Cl.OC(CN1CCNCC1)Cn1c2ccc(Br)cc2c2cc(Br)ccc21 (centres unmarked) [iMAC2, 3,6-Dibromo-a-(1-piperazinylmethyl)-9H-carbazole-9-ethanol dihydrochloride] | – | maintained CHAT1 levels
